{
  "source": "patent US20090081669A1",
  "about": "(ENCODE BIO, INC., priority 2006, published 2009)",
  "key": {"yeast strain MaV203": {"test_system": "yeast strain MaV203", "experiment": "Rescue of GAL4 (TAG) expression by DANSYL-O-RS/O-tRNA pair, growth in the absence of uracil", "assay_type": "cell-based", "settings": "MaV203 with DANSYL-O-RS, suppressor O-tRNA and GAL4 TAG", "text": "The yeast strain MaV203 was transfected with plasmids coding for the DANSYL-O-RS (SEQ ID NO:12, derived from E. coli), suppressor O-tRNA (SEQ ID NO:5 derived from E. coli) and a marker gene, GAL4, containing nonsense TAG codons. Yeast harboring a functional DANSYL-RSOR and suppressor tRNA OR will “rescue” expression of GAL4. The MAV203 yeast strain contains the URA3 gene (required for uracil biosynthesis) under control of the GAL4 promoter. When grown in the absence of uracil, MAV203 yeast will not grow unless “rescue” of GAL4 expression occurs."}, "CAT-TAG in CHO cells": {"test_system": "CAT-TAG in CHO cells", "experiment": "CAT-TAG expression in transfected CHO cells (FAST CAT assay)", "assay_type": "cell-based", "settings": "cells with O-RS/O-tRNA and CAT-TAG, grown in the presence of dansyl-alanine", "text": "We first redesigned the suppressor O-tRNA gene to make it suitable for expression in mammalian cells by altering the 5′ UTR, mutating the promoter regions and generating a tandem repeat, thereby forming SEQ ID NO:6, and subcloned the O-RS gene (SEQ ID NO:12) into a mammalian expression vector. We transformed CHO cells with the plasmids encoding the modified O-RS/O-tRNA genes and a marker gene, Chloramphenicol Acetyltransferase (“CAT”), containing a nonsense TAG codon (“CAT-TAG”). Expression of CAT-TAG was assessed using a fluorescent-based assay (FAST CAT, Invitrogen, Inc.) that measures the conversion of chloramphenicol-BODIPY (FL-CM) to 3-acetyl-chloramphenicol-BODIPY (FL-AcCM) by thin layer chromatography. […] As a positive control, cells were transfected with wildtype CAT cDNA."}},
  "data": [
    {"smiles": "CN(C)c1cccc2c(S(=O)(=O)NC[C@H](N)C(=O)O)cccc12", "values": [
      {"measurement": "growth of transformed yeast in the absence of uracil", "setting": "yeast strain MaV203", "value": "Growth was only observed when the transformed yeast were grown in the presence of dansyl-alanine"},
      {"measurement": "CAT activity of transfected CHO cells", "setting": "CAT-TAG in CHO cells", "value": "expressed significant CAT activity"}
    ]}
  ]
}
